Molecular target: T1, fibrin (clotted fibrinogen from human plasma) (Homo sapiens, UniProt P02671+P02675+P02679)
T1 construct: thrombin cleaves fibrinopeptides on fibrinogen resulting in an end-to-end polymerization to give the polymer fibrin; Fibrinogen from human plasma (Calbiochem); purchased Calbiochem; host or cells: human plasma
T1 sequence (P02671 36-629 isoform P02671-2 limits assumed): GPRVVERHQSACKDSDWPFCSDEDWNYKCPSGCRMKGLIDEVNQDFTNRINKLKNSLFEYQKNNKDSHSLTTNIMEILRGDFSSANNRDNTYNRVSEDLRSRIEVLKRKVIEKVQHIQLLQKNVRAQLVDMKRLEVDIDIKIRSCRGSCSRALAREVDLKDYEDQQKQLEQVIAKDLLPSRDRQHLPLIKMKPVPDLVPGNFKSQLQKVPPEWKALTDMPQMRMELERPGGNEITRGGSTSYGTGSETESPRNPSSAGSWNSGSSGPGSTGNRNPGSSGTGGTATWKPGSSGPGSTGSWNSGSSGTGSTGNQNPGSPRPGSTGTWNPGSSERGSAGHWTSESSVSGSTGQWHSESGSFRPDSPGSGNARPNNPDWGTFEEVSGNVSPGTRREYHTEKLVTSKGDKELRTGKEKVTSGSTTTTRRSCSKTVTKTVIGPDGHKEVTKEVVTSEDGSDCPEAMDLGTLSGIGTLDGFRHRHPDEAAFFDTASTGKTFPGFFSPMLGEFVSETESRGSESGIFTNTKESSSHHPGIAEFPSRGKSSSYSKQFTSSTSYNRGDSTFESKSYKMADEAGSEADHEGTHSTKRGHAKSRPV
T1 sequence (P02675 45-491 limits assumed): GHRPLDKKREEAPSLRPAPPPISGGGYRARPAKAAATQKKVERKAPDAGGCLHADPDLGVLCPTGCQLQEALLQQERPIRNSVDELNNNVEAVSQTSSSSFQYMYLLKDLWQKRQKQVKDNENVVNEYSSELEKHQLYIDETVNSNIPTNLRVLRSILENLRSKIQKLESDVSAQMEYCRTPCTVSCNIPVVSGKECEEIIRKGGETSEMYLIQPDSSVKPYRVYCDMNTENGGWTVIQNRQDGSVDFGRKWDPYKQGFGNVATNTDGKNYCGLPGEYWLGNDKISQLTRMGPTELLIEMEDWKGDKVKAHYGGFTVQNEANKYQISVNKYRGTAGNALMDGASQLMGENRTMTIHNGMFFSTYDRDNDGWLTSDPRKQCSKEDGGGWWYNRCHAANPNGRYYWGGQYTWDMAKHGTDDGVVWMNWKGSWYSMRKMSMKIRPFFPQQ
T1 sequence (P02679 27-437 isoform P02679-2 limits assumed): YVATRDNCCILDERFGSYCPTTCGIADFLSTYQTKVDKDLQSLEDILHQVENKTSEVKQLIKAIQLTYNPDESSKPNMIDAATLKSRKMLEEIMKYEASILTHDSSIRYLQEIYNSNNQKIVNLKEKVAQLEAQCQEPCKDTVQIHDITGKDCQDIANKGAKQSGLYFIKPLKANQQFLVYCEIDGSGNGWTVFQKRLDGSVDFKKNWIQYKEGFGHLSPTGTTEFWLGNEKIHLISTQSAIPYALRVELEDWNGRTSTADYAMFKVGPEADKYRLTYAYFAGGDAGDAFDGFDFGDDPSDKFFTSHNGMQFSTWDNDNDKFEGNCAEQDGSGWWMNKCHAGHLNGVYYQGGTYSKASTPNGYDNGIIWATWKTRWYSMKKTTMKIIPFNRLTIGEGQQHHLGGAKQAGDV
Assay: Fibrin binding of Cu-64 labeled probes, dried fibrin plate, percentage bound
Conditions: dried fibrin wells, 37° C., unbound probe by well counting
Protocol: Fibrinogen from human plasma (Calbiochem) was dialyzed against 50 mM Tris, pH 7.4, 150 mM sodium chloride, 5 mM sodium citrate (TBS·citrate). The fibrinogen concentration was adjusted to 5 mg/mL and CaCl2 was added (7 mM). The fibrinogen solution (50 μL) was dispensed into the wells of a 96-well polystyrene microplate (Immulon-II). A solution (50 μL) of human thrombin (2 U/mL) in TBS was added to each well to clot the fibrinogen. The plates were incubated at 37° C. and evaporated to dryness overnight. The plates were sealed with tape and stored at −20° C. until use. The wells with dried fibrin were incubated at 37° C. with known concentrations of the probes. The concentration of the unbound probe was determined by well counting. The concentration of the bound probe=[total]−[unbound]. The percentage bound probe was given by [(bound probe)/total probe)]×100.

Substance: Gd3-EP-2104R-Cu [Compound 21]
- % bound (percentage bound probe): 98.7%

Source: patent US9200017B2, “Multimodal imaging of fibrin” (The General Hospital Corporation, priority 2009, dated 2015)
